Experimental data as given in article PMC6458850, “CXXC5 mediates growth plate senescence and is a target for enhancement of longitudinal bone growth” (Life Science Alliance, 2019).

System: C28/I2 cells
Test: CXXC5/β-catenin expression and chondrogenic markers in C28/I2 cells
Type: cell-based, human
Protocol: Figure 2. The effects of estrogen on CXXC5 expression and the mediation of growth plate senescence. (A) Immunoblotting (upper) and quantitative analyses (mean ± SEM, n = 3) (lower) in C28/I2 cells treated with 100 nM E2 (17β-estradiol) for 0, 1, 3, 6, 24, 48, or 72 h. (B) Immunocytochemical staining (left) and quantitative analyses of the fluorescent intensity (mean ± SEM, n = 3; t test, **P < 0.005 and ***P < 0.0005) (right) in C28/I2 cells treated with 100 nM E2 for 40 h. Scale bars, 100 μm. (C–E) Tibial organ cultures (E15.5) incubated with 100 nM E2 for 6 d. Representative images at 6 d (C, left) and quantitative analyses of the growth changes (mean ± SEM, n = 5; t test, ***P < 0.0005) (C, right). Scale bar, 1 mm. H&E staining (D, left) and quantification of each zone height (mean ± SEM, n = 5; t test, *P < 0.05 and **P < 0.005) (D, right) in the growth plate. Scale bar, 200 μm. IHC analyses of β-catenin and CXXC5 (E). Scale bars, 50 μm. (F) 3-wk-old Cxxc5^+/+ and Cxxc5^−/− mice were treated with E2 cypionate (70 μg/kg) by i.m. injection once a week for 3 wk (n = 3–4). Representative images of H&E staining and IHC analyses for BrdU, β-catenin, and CXXC5 in the growth plates of proximal tibiae are shown. The area within the dashed lines indicates the growth plate zone. Black and white scale bars, 50 μm. Yellow scale bar, 20 μm. RZ, resting zone; PZ, proliferative zone; HZ, hypertrophic zone.
Figure S7. The effects of KY19382 on chondrocyte proliferation and differentiation. (A) ATDC5 cells treated with 0.01 or 0.1 μM concentrations of KY19382 were incubated for 48 h followed by treatment with 50 μM BrdU for 12 h before harvesting. BrdU incorporation was visualized by immunofluorescent staining using a specific BrdU antibody (left). BrdU-positive cells were quantified (mean ± SEM, n = 3; ANOVA, P = 7.8 × 10^−5; Tukey’s post-hoc test, *P < 0.05 and ***P < 0.0005) (right). Scale bar, 100 μm. (B) qRT-PCR analyses of mRNA levels of chondrogenic differentiation markers in ATDC5 cells incubated with 0.1 μM KY19382 for 3 d in three-dimensional alginate beads after transfection with control siRNA or Ctnnb1 siRNA (mean ± SEM, n = 3; t test, *P < 0.05, **P < 0.005, and ***P < 0.0005). (C) qRT-PCR analyses of mRNA levels of chondrogenic differentiation markers in C28/I2 cells incubated with 1 μM KY19382 for 3 d in three-dimensional alginate beads (mean ± SEM, n = 3; t test, *P < 0.05 and ***P < 0.0005). n.s., no significance.
The mouse chondrogenic cell line, ATDC5, was obtained from the RIKEN Cell Bank. The human juvenile costal chondrocyte cell line, C28/I2, was provided by Dr. W U Kim (Catholic University, Korea). HEK293-TOP cells (HEK293 cells containing the chromosomally incorporated TOPFlash gene) were provided by Dr. S Oh (Kuk Min University, Korea). […]

SMILES	time of maximal CXXC5 level (100 nM)	CXXC5 expression (100 nM, 0-72 h)	β-catenin level (100 nM, after 24 h)	mRNA levels of chondrogenic markers (1 μM, 3 d, alginate beads)
C[C@]12CC[C@@H]3c4ccc(O)cc4CC[C@H]3[C@@H]1CC[C@@H]2O [E2, 17β-estradiol]	24 h	induced	reduced	–
CON=C1C(=C2C(=O)Nc3cc(Cl)c(Cl)cc32)Nc2ccccc21 [KY19382, 5,6-dichloroindirubin-3′-methoxime]	–	–	–	up-regulated
